Laboratory results as given in PubChem BioAssay AID248 (DTP/NCI, 2004).
Several values for one entry are separate records, joined by “and”; a condition that tells them apart may be missing. Equal entries are not always repeated. Inconclusive results and toxic doses are left out.

Tested on: L1210 leukemia ip in BDF1 mice, survival T/C
Test: NCI In Vivo Anticancer Drug Screen. Data for tumor model L1210 Leukemia (intraperitoneal) in B6D2F1 (BDF1) mice
Settings: endpoint: mean survival time, higher = longer survival
Summary of the method: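 Transplanted-tumor mice were given test agent; controls received vehicle only. Survival readings from the two groups were divided (treated over control).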

[1] = dose: 100.0 mg/kg/injection, schedule: Q04DX003 (ip), vehicle: saline with Tween-80
[2] = dose: 200.0 mg/kg/injection, schedule: Q04DX003 (ip), vehicle: saline with Tween-80
[3] = dose: 400.0 mg/kg/injection, schedule: Q04DX003 (ip), vehicle: saline with Tween-80
[4] = dose: 12.5 mg/kg/injection, schedule: Q01DX009 (ip), vehicle: saline
[5] = dose: 100.0 mg/kg/injection, schedule: Q01DX009 (ip), vehicle: saline with Tween-80
[6] = dose: 400.0 mg/kg/injection, schedule: Q01DX009 (ip), vehicle: saline with Tween-80
[7] = dose: 100.0 mg/kg/injection, schedule: Q01DX009 (ip), vehicle: Klucel (hydroxypropylcellulose) (HPC)
[8] = dose: 100.0 mg/kg/injection, schedule: Q01DX001 (ip), vehicle: saline
[9] = dose: 200.0 mg/kg/injection, schedule: Q01DX001 (ip), vehicle: saline
[10] = dose: 400.0 mg/kg/injection, schedule: Q01DX001 (ip), vehicle: saline
[11] = dose: 50.0 mg/kg/injection, schedule: Q01DX001 (ip), vehicle: saline
[12] = dose: 100.0 mg/kg/injection, schedule: Q01DX001 (ip), vehicle: carboxymethylcellulose (CMC)
[13] = dose: 200.0 mg/kg/injection, schedule: Q01DX001 (ip), vehicle: carboxymethylcellulose (CMC)
[14] = dose: 400.0 mg/kg/injection, schedule: Q01DX001 (ip), vehicle: carboxymethylcellulose (CMC)
[15] = dose: 200.0 mg/kg/injection, schedule: Q01DX009 (ip), vehicle: Klucel (hydroxypropylcellulose) (HPC)
[16] = dose: 400.0 mg/kg/injection, schedule: Q01DX009 (ip), vehicle: Klucel (hydroxypropylcellulose) (HPC)
[17] = dose: 100.0 mg/kg/injection, schedule: Q04DX003 (ip), vehicle: Klucel (hydroxypropylcellulose) (HPC)
[18] = dose: 200.0 mg/kg/injection, schedule: Q04DX003 (ip), vehicle: Klucel (hydroxypropylcellulose) (HPC)
[19] = dose: 400.0 mg/kg/injection, schedule: Q04DX003 (ip), vehicle: Klucel (hydroxypropylcellulose) (HPC)

In the case of CC(=O)NC1CON=C1OS(=O)(=O)c1ccc(C)cc1 (stereo not given), the T/C (dose: 100.0 mg/kg/injection, schedule: Q01DX001 (ip), vehicle: saline with Tween-80) is reported as 89 % of control, the T/C (dose: 200.0 mg/kg/injection, schedule: Q01DX001 (ip), vehicle: saline with Tween-80) is reported as 89 % of control and the T/C (dose: 400.0 mg/kg/injection, schedule: Q01DX001 (ip), vehicle: saline with Tween-80) is reported as 100 % of control.

With C=CCCCCCCCC/C=C1\CCOC1=O the T/C (dose: 75.0 mg/kg/injection, schedule: Q01DX009 (ip), vehicle: saline with Tween-80) was 105 % of control, the T/C [1] was 104 % of control and the T/C (dose: 150.0 mg/kg/injection, schedule: Q01DX009 (ip), vehicle: saline with Tween-80) was 93 % of control. The T/C [2] was 89 % of control, the T/C (dose: 300.0 mg/kg/injection, schedule: Q01DX009 (ip), vehicle: saline with Tween-80) was 99 % of control and the T/C [3] was 102 % of control.

In the case of CCCCc1c(N)nc(N)nc1N, the T/C (dose: 75.0 mg/kg/injection, schedule: Q01DX001 (ip), vehicle: saline with Tween-80) is reported as 103 % of control.

With Cc1cccc(N=C2C(=O)NC(=O)NC2=O)c1 the T/C (dose: 100.0 mg/kg/injection, schedule: Q01DX Z (ip), vehicle: methylcellulose (MC)) was 103 % of control and the T/C (dose: 200.0 mg/kg/injection, schedule: Q01DX Z (ip), vehicle: methylcellulose (MC)) was 106 % of control.

CCN(CC)CCC(=O)c1ccccc1 was tested, and the T/C [4] was 100 % of control, the T/C (dose: 25.0 mg/kg/injection, schedule: Q01DX009 (ip), vehicle: saline) was 97 % of control and the T/C (dose: 50.0 mg/kg/injection, schedule: Q01DX009 (ip), vehicle: saline with Tween-80) was 96 % of control. For the same molecule, the T/C (dose: 50.0 mg/kg/injection, schedule: Q01DX009 (ip), vehicle: saline) was 97 % of control and the T/C [5] was 91 % of control.

For O=C(Nc1ccccc1Cl)Nc1ccccc1Br, the T/C (dose: 100.0 mg/kg/injection, schedule: Q04DX002 (ip), vehicle: saline + alcohol) was 103 % of control, the T/C (dose: 200.0 mg/kg/injection, schedule: Q04DX002 (ip), vehicle: saline + alcohol) was 96 % of control and the T/C (dose: 400.0 mg/kg/injection, schedule: Q04DX002 (ip), vehicle: saline + alcohol) was 92 % of control.

In the case of COc1cc(OC)c2c(c1Cl)OC1(C(=O)C=CCC1C)C2=O (stereo not given), the T/C [1] is reported as 98 % of control, the T/C [2] is reported as 104 % of control and the T/C [3] is reported as 96 % of control.

For CN(Cc1ccccc1)C(=O)Nc1ccccc1, the T/C (dose: 100.0 mg/kg/injection, schedule: Q04DX002 (ip), vehicle: Klucel (hydroxypropylcellulose) (HPC)) was 98 % of control, the T/C (dose: 200.0 mg/kg/injection, schedule: Q04DX002 (ip), vehicle: Klucel (hydroxypropylcellulose) (HPC)) was 103 % of control and the T/C (dose: 400.0 mg/kg/injection, schedule: Q04DX002 (ip), vehicle: Klucel (hydroxypropylcellulose) (HPC)) was 95 % of control.

In the case of COC(=O)C1OC1(C)c1ccc(C)cc1 (stereo not given), the T/C [5] is reported as 92 % of control and the T/C [6] is reported as 106 % of control.

With CC(NC(=O)OCc1ccccc1)C(=O)NC(CCC(=O)OCc1ccccc1)C(=O)OCc1ccccc1 (stereo not given) the T/C [1] was 93 % of control, the T/C [2] was 92 % of control and the T/C [3] was 92 % of control.

Cc1ccc(N)c2cccnc12 was tested, and the T/C [7] was 93 % of control.

CCOC(=O)NP(=O)(Nc1ccccc1)Nc1ccccc1 was tested, and the T/C (dose: 50.0 mg/kg/injection, schedule: Q01DX001 (ip), vehicle: alcohol) was 104 % of control, the T/C (dose: 100.0 mg/kg/injection, schedule: Q01DX001 (ip), vehicle: alcohol) was 98 % of control and the T/C (dose: 200.0 mg/kg/injection, schedule: Q01DX001 (ip), vehicle: alcohol) was 102 % of control. For the same molecule, the T/C (dose: 400.0 mg/kg/injection, schedule: Q01DX001 (ip), vehicle: alcohol) was 104 % of control.

In the case of CC1(C)OC(=O)C(C#N)C1c1ccccc1 (stereo not given), the T/C [8] is reported as 93 % of control, the T/C [9] is reported as 91 % of control and the T/C [10] is reported as 96 % of control.

O=C1CCC(=O)N1[N+](=O)[O-] was tested, and the T/C [11] was 95 % of control and 89 % of control, the T/C [8] was 97 % of control and 101 % of control and the T/C [9] was 103 % of control and 107 % of control.

CN1CCC2CCCCC2C1Cc1ccc(CC2C3CCCCC3CCN2C)cc1 (stereo not given) was tested, and the T/C (dose: 2.5 mg/kg/injection, schedule: Q01DX001 (ip), vehicle: carboxymethylcellulose (CMC)) was 96 % of control and the T/C (dose: 5.0 mg/kg/injection, schedule: Q01DX001 (ip), vehicle: carboxymethylcellulose (CMC)) was 96 % of control.

In the case of O=C(O)c1cccc(F)n1, the T/C [1] is reported as 91 % of control and the T/C [2] is reported as 89 % of control.

CC1Cc2cccc3ccc(=O)n(c23)C1 (stereo not given) was tested, and the T/C [12] was 91 % of control, the T/C [13] was 100 % of control and the T/C [14] was 98 % of control.

For COC(=O)C1CC=CC(C)C1C(=O)OC (stereo not given), the T/C [7] was 105 % of control, the T/C [15] was 103 % of control and the T/C [16] was 100 % of control.

For CC(=O)OC1CCC2(C)C(CCC3C2CCC2(C)C3CC(OC(C)=O)C2C(C)C2=NCC(C)CC2)C1 (stereo not given), the T/C [17] was 94 % of control, the T/C [18] was 98 % of control and the T/C [19] was 105 % of control.

With COc1ccc(OC(C)OCCOCCOC(C)=O)cc1 (stereo not given) the T/C (dose: 100.0 mg/kg/injection, schedule: Q04DX002 (ip), vehicle: saline) was 104 % of control, the T/C (dose: 200.0 mg/kg/injection, schedule: Q04DX002 (ip), vehicle: saline) was 93 % of control and the T/C (dose: 400.0 mg/kg/injection, schedule: Q04DX002 (ip), vehicle: saline) was 107 % of control.

With CCCCC(=O)N/N=C/c1c[nH]c2ccc(Br)cc12 the T/C [12] was 88 % of control, the T/C [13] was 93 % of control and the T/C [14] was 93 % of control.

With Cc1cccc(NC(=O)CCCCCCCCC(=O)Nc2cccc(C)c2C)c1C the T/C [7] was 92 % of control, the T/C [15] was 102 % of control and the T/C [16] was 98 % of control.

For CCCCCCNC(=O)NC, the T/C [7] was 97 % of control and the T/C [15] was 103 % of control.

COC(=O)C1C(c2ccc(-c3ccccc3)cc2)N1C(C)C (stereo not given) was tested, and the T/C [17] was 101 % of control, the T/C [18] was 95 % of control and the T/C [19] was 98 % of control.

For COc1ccccc1OC(=O)Nc1cc([N+](=O)[O-])ccc1C, the T/C [5] was 89 % of control, the T/C (dose: 200.0 mg/kg/injection, schedule: Q01DX009 (ip), vehicle: saline with Tween-80) was 96 % of control and the T/C [6] was 121 % of control.

Cc1cc2c3ccccc3ncn2n1 was tested, and the T/C [17] was 101 % of control, the T/C [18] was 103 % of control and the T/C [19] was 109 % of control.

COc1ccc(C(C)(C)C#N)cc1 was tested, and the T/C [11] was 102 % of control, the T/C [8] was 100 % of control and the T/C [9] was 100 % of control. The T/C [10] was 97 % of control.

With ClCC1COC(CCc2ccccc2)O1 (stereo not given) the T/C (dose: 222.0 mg/kg/injection, schedule: Q01DX Z (ip), vehicle: saline) was 95 % of control, the T/C (dose: 333.0 mg/kg/injection, schedule: Q01DX Z (ip), vehicle: saline) was 95 % of control and the T/C (dose: 500.0 mg/kg/injection, schedule: Q01DX Z (ip), vehicle: saline) was 113 % of control.

For c1ccc2c(C3CO3)c3ccc4ccccc4c3cc2c1 (stereo not given), the T/C (dose: 100.0 mg/kg/injection, schedule: Q04DX002 (ip), vehicle: other) was 113 % of control, the T/C (dose: 200.0 mg/kg/injection, schedule: Q04DX002 (ip), vehicle: other) was 179 % of control and the T/C (dose: 400.0 mg/kg/injection, schedule: Q04DX002 (ip), vehicle: other) was 120 % of control.

For Cc1c2cc3c(cc2cc2c4cc5c(cc4cc[n+]12)OCO5)OCO3 (tested in a mixture with another compound), the T/C (dose: 5.5 mg/kg/injection, schedule: Q04DX003 (ip), vehicle: saline) was 110 % of control, the T/C (dose: 6.25 mg/kg/injection, schedule: Q01DX009 (ip), vehicle: saline) was 110 % of control and the T/C (dose: 8.3 mg/kg/injection, schedule: Q04DX003 (ip), vehicle: saline) was 108 % of control. For the same molecule, the T/C [4] was 89 % of control, the T/C (dose: 12.5 mg/kg/injection, schedule: Q04DX003 (ip), vehicle: saline) was 98 % of control and the T/C (dose: 18.7 mg/kg/injection, schedule: Q04DX003 (ip), vehicle: saline) was 93 % of control.

In the case of O=C(NCCCCCCNC(=O)Nc1ccc(C2=NCCN2)cc1)Nc1ccc(C2=NCCN2)cc1, the T/C (dose: 62.0 mg/kg/injection, schedule: Q01DX Z (ip), vehicle: carboxymethylcellulose (CMC)) is reported as 106 % of control, the T/C (dose: 125.0 mg/kg/injection, schedule: Q01DX Z (ip), vehicle: carboxymethylcellulose (CMC)) is reported as 92 % of control and the T/C (dose: 250.0 mg/kg/injection, schedule: Q01DX Z (ip), vehicle: carboxymethylcellulose (CMC)) is reported as 109 % of control. For the same molecule, the T/C (dose: 500.0 mg/kg/injection, schedule: Q01DX Z (ip), vehicle: carboxymethylcellulose (CMC)) was 102 % of control.
